These are literature values, as cited in patent US20230393151A1, “Precision Targeted Retromer Therapeutics for the Treatment of Neurodegenerative Diseases and Disorders” (The Trustees of Columbia University in the City of New York, priority 2020, published 2023).

In data set [1] the target is purified, reconstituted heterotrimeric complex (retromer) (Homo sapiens, UniProt Q96QK1+Q9UBQ0). Particulars: incubated with complex at various concentrations; Mecozzi et al. 2014.
The target in data set [2] is T1, VPS35 and VPS26 (Mus musculus, UniProt Q9EQH3+Q9QZ88).
T1 construct: endogenous in cells
Particulars: cultured primary neurons; Mecozzi et al. 2014.

For the compound `[H]/N=C(\N)SCc1ccc(CS/C(N)=N/[H])s1` [R55], the “Thermal stability of retromer complex” value in data set [1] is reported as “improved thermal stability significantly”. In addition, in data set [2], the “VPS35 and VPS26 protein levels” value is “increased”.
